Data on two compounds can be found in US20180153868A1, “TREATMENT OF BREAST CANCER BY CONCOMITANT ADMINISTRATION OF A BROMODOMAIN INHIBITOR AND A SECOND AGENT” (Gilead Sciences, Inc., priority 2016, published 2018).

Common to all, as to assay type: cell-based
For assay [1], the system named is MCF7. Briefly: Cell viability assay (Cell Titer-Glo), MCF7. Conditions: for EC50: Homo sapiens, 72 hours. Here is the method:
(§1) The cell viability was determined using the Cell Titer-Glo luminescent cell viability assay, according to the manufacturer's instructions. Luminescence was measured using a PHERAstar FS microplate reader (BMG LABTECH, German). The half-maximal inhibitory concentration (IC50) values were calculated using the prism plot software. The effects of treatments were measured by conducting three independent experiments.

For assay [2], the system named is T47D. Briefly: Cell viability assay (Cell Titer-Glo), T47D. The note with it: for EC50: Homo sapiens, 96 hours. Here is the method: as §1
The test system of assay [3] is MCF7. Briefly: Colony formation / survival assay, MCF7. Conditions: 7 days. Here is the method: (§2) Colony Formation or Survival Asasys: Cells were seeded in 12-well plates in triplicates at a density of 600 cells per well for MCF7 and 800 cells per well for T47D cells. Cells were treated after overnight incubated. Medium was changed every 3-4 days until cluster of colonies were formed. The plates were incubated for 7 days for MCF7 cells and xx days for T47D cells. Colonies in the plate were fixed and stained with Formaldehyde (1.0% v/v), Methanol (1%) and crystal violet (1% w/v) for xx min; thoroughly washed with water and air dry and counted using with automated colony counter (Gel counter. OXFORD OPTRONIC Inc). Results are present as average colony count ±SD.
(§3) Impact on cell growth can also be evaluated in colony survival assays. To evaluate the effect of compound (I-1) on colony survival, MCF7 and T47D were plated at low density and treated with several doses of compound (I-1) alone and in combination with fulvestrant. The number of colonies formed after 7 days in culture was evaluated (FIG. 9). […] In the presence of fulvestrant, colony number was reduced 73%, and 20 nM compound (I-1) further reduced colony number by 92%. […] In the presence of fulvestrant, colony number was reduced 41%.

Assay [4] has as its system T47D. Briefly: Colony formation / survival assay, T47D. As to the method:
as §2, §3

For assay [5], the system named is ER. In words: ER protein expression in MCF7 and T47D (FIG. 1). The note with it: 24 hours. The text has this:
(§4) ER, when bound by estrogen or […] such as fulvestrant, undergoes a conformational change that promotes ubiquitination and degradation of the receptor.

In assay [6] the test system is ER targets GREB1, MYC, and PGR. Briefly: Protein expression of ER targets in MCF7 and T47D (FIG. 1). The note with it: 24 hours.
From the text: as §4

The mark [7] stands for this setting: single agent fulvestrant treatment.
The mark [8] stands for this setting: compound (I-1) alone, read-out: average EC50, cell viability.
The mark [9] stands for this setting: in the presence of fulvestrant, read-out: EC50, cell viability.
Setting [10] is: 20 nM compound (I-1) in the presence of fulvestrant.

Like-named read-outs stand apart in the source and are kept apart here.

Take `C[C@]12CC[C@@H]3c4ccc(O)cc4C[C@@H](CCCCCCCCC[S+]([O-])CCCC(F)(F)C(F)(F)F)[C@H]3[C@@H]1CC[C@@H]2O` (stereo partly shown) [fulvestrant, reference compound]: the “reduced growth (average)” value is recorded as 47.0±19.6% in assay [1] (setting [7]) and 35.8±5.0% in assay [2] (setting [7]). In addition, the colony number reduced in assay [3] (fulvestrant alone) is on record as 73%; in assay [4] (fulvestrant alone) it was 41%. The ER protein levels result in assay [5] (12 nM Fulvestrant) is on record as “reduced ER protein levels”. The “estrogen induction of GREB1, MYC, PGR protein expression” value in assay [6] (in the presence of fulvestrant (12 nM)) is listed as “significantly reduced”.
Take `Cc1noc(C)c1-c1cc(C(O)(c2ccccn2)c2ccccn2)c2nc(C3CC3)[nH]c2c1` [compound (I-1), (2-cyclopropyl-6-(3,5-dimethylisoxazol-4-yl)-1H-benzo[d]imidazol-4-yl)di(pyridin-2-yl)methanol]: the EC50 worked out at 61.3 ± 8.4 nM in assay [1] (setting [8]), 25 ± 10.6 nM in assay [1] (setting [9]), 95.3 ± 16.5 nM in assay [2] (setting [8]) and 64 ± 5 nM in assay [2] (setting [9]). Also, the entries for the “increase in potency (EC50 alone vs in combination with fulvestrant)” value in assay [1] (p value 0.00027) and in assay [2] (p value 0.0030) were 2.5 fold and 1.5 fold, respectively. Moreover, the results for the reduced colony number in assay [3] (20 nM compound (I-1) alone), in assay [4] (60 nM compound (I-1) alone) and in assay [4] (120 nM compound (I-1) alone) were 48%, 53% and 60%, respectively. Also, the “further reduced colony number” value is reported as 92% in assay [3] (setting [10]), 66% in assay [4] (60 nM compound (I-1) in the presence of fulvestrant) and 78% in assay [4] (120 nM compound (I-1) in the presence of fulvestrant). Also, the effect on colonies entry in assay [3] (60 nM compound (I-1) alone) and in assay [3] (120 nM compound (I-1) alone) was “nearly all colonies eliminated” in each case. In addition, the “effect on colony number” value in assay [4] (20 nM compound (I-1) alone) and in assay [4] (setting [10]) was “no significant effect” in each case. In addition, the ER protein expression result in assay [5] (100 or 50 nM compound (I-1) added under estrogen or fulvestrant treatments) was “further reduced ER protein expression”. In addition, the “ER target (GREB1, MYC, PGR) expression” value in assay [6] (addition of 50 or 100 nM compound (I-1)) is reported as “consistently reduced target expression”. Further, the “ER target (GREB1, MYC, PGR) protein reduction” value in assay [6] (combination of fulvestrant and compound (I-1)) is “most pronounced protein reduction”.
